Assay results published in PubChem BioAssay (NCI).
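Cultured in 96-well plates, cells were exposed to test compound for 48 hours across five concentrations. Abbreviation: GI50, concentration required for 50% inhibition of growth. TGI: total growth inhibition.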

How the values were obtained:
Assay in all cases: growth of human tumour cells (NCI), 48 h
[1] = test system: MCF7 breast
[2] = test system: CCRF-CEM leukemia
[3] = test system: HOP-92 NSCLC
[4] = test system: TK-10 renal
[5] = test system: HL-60(TB) leukemia
[6] = test system: HCC-2998 colon
[7] = test system: MDA-MB-435
[8] = test system: HS 578T breast
[9] = test system: MOLT-4 leukemia
[10] = test system: KM12 colon
[11] = test system: U251 CNS
[12] = test system: MDA-MB-231 breast
[13] = test system: NCI-H460 lung
[14] = test system: HT29 colon
[15] = test system: SN12C renal
[16] = test system: OVCAR-5 ovarian
[17] = test system: EKVX NSCLC
[18] = test system: UACC-257 melanoma
[19] = test system: BT-549 breast
[20] = test system: SNB-75 CNS
[21] = test system: SK-MEL-28 melanoma
[22] = test system: SK-OV-3 ovarian
[23] = test system: OVCAR-4 ovarian
[24] = test system: SF-268 CNS
[25] = test system: RXF 393 renal
[26] = test system: 786-0 renal
[27] = test system: NCI-H23 lung
[28] = test system: A498 renal
[29] = test system: M14 melanoma
[30] = test system: SW-620 colon
[31] = test system: SK-MEL-2 melanoma
[32] = test system: UACC-62 melanoma
[33] = test system: SNB-19 CNS
[34] = test system: NCI-H226 lung
[35] = test system: SF-295 CNS
[36] = test system: DU-145 prostate
[37] = test system: UO-31 renal
[38] = test system: HCT-116 colon
[39] = test system: T-47D breast
[40] = test system: RPMI-8226 leukemia
[41] = test system: SF-539 CNS
[42] = test system: NCI-H522 lung
[43] = test system: SR leukemia
[44] = test system: NCI/ADR-RES ovarian
[45] = test system: PC-3 prostate
[46] = test system: CAKI-1 renal
[47] = test system: K-562 leukemia
[48] = test system: SK-MEL-5 melanoma
[49] = test system: IGROV1 ovarian
[50] = test system: OVCAR-3 ovarian
[51] = test system: MALME-3M melanoma
[52] = test system: HOP-62 NSCLC
[53] = test system: OVCAR-8 ovarian
[54] = test system: ACHN renal
[55] = test system: LOX IMVI melanoma
[56] = test system: A549 NSCLC
[57] = test system: HCT-15 colon

CCOC(=O)c1ccc2c(c1)c1c(C)c3cnccc3c(C)c1n2C
GI50 [1]: 0.205 µM | TGI [1]: 1.03 µM | GI50 [2]: 0.216 µM | TGI [2]: 2.94 µM | GI50 [3]: 0.143 µM | TGI [3]: 0.813 µM | GI50 [4]: 0.334 µM | TGI [4]: 1.31 µM | GI50 [5]: 0.324 µM | TGI [5]: 1.49 µM | GI50 [6]: 0.257 µM | TGI [6]: 1.29 µM | GI50 [7]: 0.142 µM | TGI [7]: 0.501 µM | GI50 [8]: 0.204 µM | TGI [8]: 0.9 µM | GI50 [9]: 0.0594 µM | TGI [9]: 1.66 µM | GI50 [10]: 0.128 µM | TGI [10]: 1.03 µM | GI50 [11]: 0.0992 µM | TGI [11]: 0.83 µM | GI50 [12]: 0.16 µM | TGI [12]: 0.892 µM | GI50 [13]: 0.265 µM | TGI [13]: 1.07 µM | GI50 [14]: 0.0561 µM | TGI [14]: 1.41 µM | GI50 [15]: 0.0783 µM | TGI [15]: 0.865 µM | GI50 [16]: 0.216 µM | TGI [16]: 0.912 µM | GI50 [17]: 0.193 µM | TGI [17]: 0.69 µM | GI50 [18]: 0.181 µM | TGI [18]: 0.651 µM | GI50 [19]: 0.441 µM | TGI [19]: 1.88 µM | GI50 [20]: 0.141 µM | TGI [20]: 0.703 µM | GI50 [21]: 0.183 µM | TGI [21]: 0.463 µM | GI50 [22]: 0.216 µM | TGI [22]: 0.713 µM | GI50 [23]: 0.217 µM | TGI [23]: 0.697 µM | GI50 [24]: 0.0988 µM | TGI [24]: 0.823 µM | GI50 [25]: 0.12 µM | TGI [25]: 0.39 µM | GI50 [26]: 0.141 µM | TGI [26]: 1.11 µM | GI50 [27]: 0.1 µM | TGI [27]: 0.417 µM | GI50 [28]: 0.162 µM | TGI [28]: 0.376 µM | GI50 [29]: 0.151 µM | TGI [29]: 0.383 µM | GI50 [30]: 0.0482 µM | TGI [30]: 0.839 µM | GI50 [31]: 0.19 µM | TGI [31]: 0.677 µM | GI50 [32]: 0.0984 µM | TGI [32]: 0.264 µM | GI50 [33]: 0.107 µM | TGI [33]: 1.33 µM | GI50 [34]: 0.0911 µM | TGI [34]: 0.382 µM | GI50 [35]: 0.128 µM | TGI [35]: 0.765 µM | GI50 [36]: 0.108 µM | TGI [36]: 0.718 µM | GI50 [37]: 0.0536 µM | TGI [37]: 0.728 µM | GI50 [38]: 0.0378 µM | TGI [38]: 1.03 µM | GI50 [39]: 0.382 µM | TGI [39]: 15.8 µM | GI50 [40]: 0.0953 µM | TGI [40]: 1.8 µM | GI50 [41]: 0.173 µM | TGI [41]: 1.07 µM | GI50 [42]: 0.0881 µM | TGI [42]: 0.318 µM | GI50 [43]: 0.0447 µM | GI50 [44]: 0.0682 µM | TGI [44]: 0.6 µM | GI50 [45]: 0.137 µM | TGI [45]: 0.821 µM | GI50 [46]: 0.0475 µM | TGI [46]: 0.859 µM | GI50 [47]: 0.0792 µM | TGI [47]: 1.32 µM | GI50 [48]: 0.192 µM | TGI [48]: 0.651 µM | GI50 [49]: 0.0539 µM | TGI [49]: 0.357 µM | GI50 [50]: 0.119 µM | TGI [50]: 0.47 µM | GI50 [51]: 0.131 µM | TGI [51]: 0.407 µM | GI50 [52]: 0.0755 µM | TGI [52]: 1.07 µM | GI50 [53]: 0.116 µM | TGI [53]: 2.99 µM | GI50 [54]: 0.0385 µM | TGI [54]: 0.328 µM | GI50 [55]: 0.0558 µM | TGI [55]: 0.31 µM | GI50 [56]: 0.147 µM | TGI [56]: 1.02 µM | GI50 [57]: 0.0571 µM | TGI [57]: 0.921 µM
